Test results reported in patent US7803801B2, “Aminopyridine compounds having Syk inhibitory activity” (Japan Tobacco, Inc., priority 2005, dated 2010).
Structures can show the parent of a compound that is named as a salt.

Columns and labels:
[1] = biological target: GST-Syk Full Protein (human) (Homo sapiens, UniProt P43405); assay: Syk kinase inhibition test (HTRF method); type: biochemical; conditions: HTRF, 100 μM ATP, 30 min room temperature, average; read-out: sykHTRF ave IC50
Method in brief: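 HTRF read-out: after EDTA termination and 1 h with XL665-streptavidin and Eu-anti-phosphotyrosine, the 665/620 nm ratio was measured. The reaction ran 30 min at 20–25 °C with final 6.4 nM human GST-Syk, 250 nM biotinylated peptide, 100 μM ATP, pH 7.0 HEPES buffer, 2% DMSO.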

[2] = test system: cultured human mast cells; assay: Degranulation inhibition test using cultured human mast cells (IgE cross-linking, β-Hexosaminidase release); type: cell-based; conditions: Mast cell; cultured human mast cells, anti-hIgE stimulation, β-Hexosaminidase index, average; read-out: human degranulation ave. IC50
Method in brief: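 Degranulation was triggered by anti-hIgE (10 μg/mL final, 30 min, 37 °C) after a 10-min compound pretreatment (DMSO 0.1%) of cord-blood CD34+-derived mast cells primed 5 days with IL-4 and IgE. β-Hexosaminidase in supernatant was measured with p-nitrophenyl-GlcNAc substrate (A405), expressed against water-lysed total; IC50 (M).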

SMILES | IC50 [1] | IC50 [2]
Cc1ccnc(Nc2cccc(-c3cnc([C@H]4CC[C@H](C(=O)N[C@@H](CO)Cc5cnc[nH]5)CC4)s3)n2)c1 [Compound A-303, N—[(R)-2-hydroxy-1-(3H-imidazol-4-ylmethyl)ethyl]-trans-4-{5-[6-(4-methylpyridin-2-ylamino)pyridin-2-yl]thiazol-2-yl}cyclohexanecarboxamide] | < 100 nM | > 1000 nM
Cc1ccnc(Nc2cccc(-c3cnc([C@H]4CC[C@H](C(=O)N[C@H](CO)Cc5cnc[nH]5)CC4)s3)n2)c1 [Compound A-304, N—[(S)-2-hydroxy-1-(3H-imidazol-4-ylmethyl)ethyl]-trans-4-{5-[6-(4-methylpyridin-2-ylamino)pyridin-2-yl]thiazol-2-yl}cyclohexanecarboxamide] | < 100 nM | > 1000 nM
Cc1ccnc(Nc2cccc(-c3cnc([C@H]4CC[C@H](C(=O)N[C@H]5CC[C@H](O)CC5)CC4)s3)n2)c1 [Compound A-305] | 100 to 1000 nM | 100 to 1000 nM
Cc1ccnc(Nc2cccc(-c3cnc(C4CCN(C(=O)c5ccncc5)CC4)s3)n2)c1 [Compound A-306] | 100 to 1000 nM | 100 to 1000 nM
O=C([C@H]1CC[C@H](c2ncc(-c3cccc(Nc4cc5ccccc5cn4)n3)s2)CC1)N1CCC(O)CC1 [Compound A-307] | 100 to 1000 nM | 100 to 1000 nM
COC(=O)NCCc1ncc(-c2cccc(Nc3cc(C)ccn3)n2)s1 [Compound A-308] | 100 to 1000 nM | 100 to 1000 nM
Cc1ccnc(Nc2cccc(-c3cnc([C@H]4CC[C@H](C(=O)NCCN(C)C)CC4)s3)n2)c1 [Compound A-309, N-(2-dimethylaminoethyl)-trans-4-{5-[6-(4-methylpyridin-2-ylamino)pyridin-2-yl]thiazol-2-yl}cyclohexanecarboxamide] | < 100 nM | 100 to 1000 nM
Cc1ccnc(Nc2cccc(-c3cnc([C@H]4CC[C@H](C(=O)NC5(CO)CCCC5)CC4)s3)n2)c1 [Compound A-310] | 100 to 1000 nM | > 1000 nM
Cc1ccnc(Nc2cccc(-c3cnc([C@H]4CC[C@H](C(=O)N5CCC(N)C5)CC4)s3)n2)c1 (stereo partly drawn) [Compound A-311, (3-aminopyrrolidin-1-yl)-(trans-4-{5-[6-(4-methylpyridin-2-ylamino)pyridin-2-yl]thiazol-2-yl}cyclohexyl)methanone trihydrochloride] | < 100 nM | 100 to 1000 nM
Cc1ccnc(Nc2cccc(-c3cnc([C@H]4CC[C@H](C(=O)N5CCC(NS(C)(=O)=O)C5)CC4)s3)n2)c1 (stereo partly drawn) [Compound A-312, N-[1-(trans-4-{5-[6-(4-methylpyridin-2-ylamino)pyridin-2-yl]thiazol-2-yl]cyclohexanecarbonyl)pyrrolidin-3-yl}methanesulfonamide] | < 100 nM | 100 to 1000 nM
Cc1ccnc(Nc2cccc(-c3cnc([C@H]4CC[C@H](C(=O)N5CCC(NC(=O)CO)C5)CC4)s3)n2)c1 (stereo partly shown) [Compound A-313] | 100 to 1000 nM | 100 to 1000 nM
Cc1ccnc(Nc2cccc(-c3cnc([C@H]4CC[C@H](CN5C[C@@H](O)[C@@H](O)C5)CC4)s3)n2)c1 [Compound A-314, (3R,4S)-1-(trans-4-{5-[6-(4-methylpyridin-2-ylamino)pyridin-2-yl]thiazol-2-yl}cyclohexylmethyl)pyrrolidin-3,4-diol] | < 100 nM | > 1000 nM
Cc1ccnc(Nc2cccc(-c3cnc([C@H]4CC[C@H](CN5CCCC(O)C5)CC4)s3)n2)c1 (stereo partly shown) [Compound A-315] | 100 to 1000 nM | > 1000 nM
Cc1ccnc(Nc2cccc(-c3cnc([C@H]4CC[C@H](C#N)CC4)s3)n2)c1 [Compound A-316, trans-4-{5-[6-(4-methylpyridin-2-ylamino)pyridin-2-yl]thiazol-2-yl}cyclohexanecarbonitrile] | < 100 nM | 100 to 1000 nM
Cc1ccnc(Nc2cccc(-c3cnc([C@H]4CC[C@@H](C#N)CC4)s3)n2)c1 [Compound A-317, cis-4-{5-[6-(4-methylpyridin-2-ylamino)pyridin-2-yl]thiazol-2-yl}cyclohexanecarbonitrile] | < 100 nM | 100 to 1000 nM
CC(=O)O[C@@H](c1ccccc1)c1ncc(-c2cccc(Nc3cc(C)ccn3)n2)s1 [Compound A-318] | 100 to 1000 nM | > 1000 nM
COc1ccnc(Nc2cccc(-c3cnc([C@@H]4CCC(=O)N4)s3)n2)c1 [Compound A-319, (S)-5-{5-[6-(4-methoxypyridin-2-ylamino)pyridin-2-yl]thiazol-2-yl}pyrrolidin-2-one] | < 100 nM | 100 to 1000 nM
COc1ccnc(Nc2cccc(-c3cnc([C@H](C)O)s3)n2)c1 [Compound A-320, (S)-1-{5-[6-(4-methoxypyridin-2-ylamino)pyridin-2-yl]thiazol-2-yl}ethanol] | < 100 nM | < 100 nM
C[C@H](O)c1ncc(-c2cccc(Nc3cc(CCO)ccn3)n2)s1 [Compound A-321, (S)-1-(5-{6-[4-(2-hydroxyethyl)pyridin-2-ylamino]pyridin-2-yl}thiazol-2-yl)ethanol] | < 100 nM | < 100 nM
C[C@H](O)c1ncc(-c2cccc(Nc3cc(Cl)ccn3)n2)s1 [Compound A-322, (S)-1-{5-[6-(4-chloropyridin-2-ylamino)pyridin-2-yl]thiazol-2-yl}ethanol] | < 100 nM | < 100 nM
O=C1CC[C@@H](c2ncc(-c3cccc(Nc4cc(Cl)ccn4)n3)s2)N1 [Compound A-323, (S)-5-{5-[6-(4-chloropyridin-2-ylamino)pyridin-2-yl]thiazol-2-yl}pyrrolidin-2-one] | < 100 nM | < 100 nM

Results, then the molecule that gave them:

IC50 [1] | IC50 [2] | SMILES
< 100 nM | 100 to 1000 nM | Cc1ccnc(Nc2cccc(-c3cnc([C@H]4CC[C@H](c5noc(=O)[nH]5)CC4)s3)n2)c1 [Compound A-325, 3-(trans-4-{5-[6-(4-methylpyridin-2-ylamino)pyridin-2-yl]thiazol-2-yl}cyclohexyl)-4H-[1,2,4]oxazol-5-one]
< 100 nM | 100 to 1000 nM | Cc1ccnc(Nc2cccc(-c3cnc(C4CCC(c5nnn[nH]5)CC4)s3)n2)c1 (stereo not shown) [Compound A-326, N-(4-methylpyridin-2-yl)-N-(6-{2-[4-(1H-tetrazol-5-yl)cyclohexyl]thiazol-5-yl}pyridin-2-yl)amine]
100 to 1000 nM | 100 to 1000 nM | CC(=O)N1CCC(Cc2ncc(-c3cccc(Nc4cc(C)ccn4)n3)s2)CC1 [Compound A-328]
< 100 nM | 100 to 1000 nM | O=C1CC[C@@H](c2ncc(-c3cccc(Nc4cc(CCO)ccn4)n3)s2)N1 [Compound A-330, (S)-5-(5-{6-[4-(2-hydroxyethyl)pyridin-2-ylamino]pyridin-2-yl}thiazol-2-yl)pyrrolidin-2-one]
> 1000 nM | > 1000 nM | CC(=O)N[C@@H](C)c1ncc(-c2cccc(Nc3cc(CC(=O)O)ccn3)n2)s1 [Compound A-331]
100 to 1000 nM | 100 to 1000 nM | CCOC(=O)Cc1ccnc(Nc2cccc(-c3cnc([C@@H]4CCC(=O)N4)s3)n2)c1 [Compound A-332]
100 to 1000 nM | 100 to 1000 nM | Cc1ccnc(Nc2cccc(-c3cnc(CC(C)(C)N)s3)n2)c1 [Compound A-333]
< 100 nM | < 100 nM | CC(=O)NC(C)(C)Cc1ncc(-c2cccc(Nc3cc(C)ccn3)n2)s1 [Compound A-334, N-(1,1-dimethyl-2-{5-[6-(4-methylpyridin-2-ylamino)pyridin-2-yl]thiazol-2-yl}ethyl)acetamide]
< 100 nM | 100 to 1000 nM | C[C@H](O)c1ncc(-c2cccc(Nc3cc(C4(C)OCCO4)ccn3)n2)s1 [Compound A-335, (S)-1-(5-{6-[4-(2-methyl-[1,3]dioxolan-2-yl)pyridin-2-ylamino]pyridin-2-yl}thiazol-2-yl)ethanol]
< 100 nM | 100 to 1000 nM | CNC(=O)[C@H]1CC[C@H](c2ncc(-c3cccc(Nc4cc(C)ccn4)n3)s2)CC1 [Compound A-336, N-methyl-trans-4-{5-[6-(4-methylpyridin-2-ylamino)pyridin-2-yl]thiazol-2-yl}cyclohexanecarboxamide]
< 100 nM | < 100 nM | Cc1ccnc(Nc2cccc(-c3cnc(CC(C)(C)NS(C)(=O)=O)s3)n2)c1 [Compound A-337, N-(1,1-dimethyl-2-{5-[6-(4-methylpyridin-2-ylamino)pyridin-2-yl]-thiazol-2-yl}ethyl)methanesulfonamide]
< 100 nM | < 100 nM | NC(=O)[C@H]1CC[C@H](c2ncc(-c3cccc(Nc4cc(Cl)ccn4)n3)s2)CC1 [Compound A-338, trans-4-{5-[6-(4-chloropyridin-2-ylamino)pyridin-2-yl]thiazol-2-yl}cyclohexanecarboxamide]
< 100 nM | < 100 nM | COc1ccnc(Nc2cccc(-c3cnc([C@H]4CC[C@H](C(N)=O)CC4)s3)n2)c1 [Compound A-339, trans-4-{5-[6-(4-methoxypyridin-2-ylamino)pyridin-2-yl]thiazol-2-yl}cyclohexanecarboxamide]
100 to 1000 nM | 100 to 1000 nM | O=C(O)Cc1ccnc(Nc2cccc(-c3cnc([C@@H]4CCC(=O)N4)s3)n2)c1 [Compound A-340]
< 100 nM | 100 to 1000 nM | Cc1ccnc(Nc2cccc(-c3cnc(CC4CCC(O)CC4)s3)n2)c1 (stereo not shown) [Compound A-341, 4-{5-[6-(4-methylpyridin-2-ylamino)pyridin-2-yl]thiazol-2-ylmethyl}cyclohexanol]
> 1000 nM | > 1000 nM | CNC(=O)Cc1ccnc(Nc2cccc(-c3cnc([C@@H]4CCC(=O)N4)s3)n2)c1 [Compound A-342]
100 to 1000 nM | 100 to 1000 nM | O=C1CC[C@@H](c2ncc(-c3cccc(Nc4cc(OCCO)ccn4)n3)s2)N1 [Compound A-343]
